Measurements as given in ChEMBL document CHEMBL1201862, “PubChem BioAssay data set” (2004).
Activity calls are given as the source filed them.

What was measured:
[1] = target: T1, Short transient receptor potential channel 4 (Mus musculus, UniProt Q9QUQ5); experiment: potentiation of DAMGO-evoked TRPC4 calcium signal – cell-based, HEK293 TRPC4/mu-opioid, Fluo-4 calcium, EC20 DAMGO, dose response (AID 434941); type: functional
T1 sequence (Q9QUQ5 whole entry): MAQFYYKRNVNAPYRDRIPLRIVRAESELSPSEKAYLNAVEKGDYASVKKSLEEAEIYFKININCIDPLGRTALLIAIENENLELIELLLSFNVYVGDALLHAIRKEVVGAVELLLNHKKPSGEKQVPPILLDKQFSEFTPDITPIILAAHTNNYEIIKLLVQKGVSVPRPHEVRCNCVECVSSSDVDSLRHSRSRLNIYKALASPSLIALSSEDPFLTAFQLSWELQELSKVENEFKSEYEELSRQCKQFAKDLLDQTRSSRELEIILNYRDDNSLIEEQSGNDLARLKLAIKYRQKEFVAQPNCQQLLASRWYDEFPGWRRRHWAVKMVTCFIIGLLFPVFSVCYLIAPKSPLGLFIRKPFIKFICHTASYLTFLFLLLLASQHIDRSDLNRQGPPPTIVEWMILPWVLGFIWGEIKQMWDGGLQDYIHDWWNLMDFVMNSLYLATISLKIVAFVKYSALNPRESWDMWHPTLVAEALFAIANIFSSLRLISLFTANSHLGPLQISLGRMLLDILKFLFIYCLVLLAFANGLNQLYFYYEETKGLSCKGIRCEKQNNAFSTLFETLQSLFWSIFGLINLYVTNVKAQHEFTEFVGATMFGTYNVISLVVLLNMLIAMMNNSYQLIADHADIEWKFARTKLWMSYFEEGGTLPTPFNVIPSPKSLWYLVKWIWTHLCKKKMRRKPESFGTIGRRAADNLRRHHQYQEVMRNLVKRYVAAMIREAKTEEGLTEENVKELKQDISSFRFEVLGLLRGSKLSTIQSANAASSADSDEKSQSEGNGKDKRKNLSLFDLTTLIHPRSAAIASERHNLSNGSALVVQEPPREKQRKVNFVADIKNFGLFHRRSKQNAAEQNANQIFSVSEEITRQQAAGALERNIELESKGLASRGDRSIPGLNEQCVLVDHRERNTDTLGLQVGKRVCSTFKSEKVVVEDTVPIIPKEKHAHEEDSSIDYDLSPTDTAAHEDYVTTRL

[2] = target: 5-hydroxytryptamine receptor 2A (Mus musculus, UniProt P35363); type: functional, cell-based;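 further: CHO-K1 cells with tagged receptor and beta-arrestin; agonist potency measured as compound-induced activation of the receptor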
[3] = target: NACHT, LRR and PYD domains-containing protein 1 (Homo sapiens, UniProt Q9C000); experiment: NALP1 inhibitors in yeast, dose response, luminescent (AID 488860); type: functional
[4] = test system: Saccharomyces cerevisiae; experiment: S. cerevisiae Caspase-1/ASC signal blockers IC50, NALP1 inhibitor project selectivity test (AID 488863); type: functional, organism-based
[5] = target: Mu-type opioid receptor (Homo sapiens, UniProt P35372); type: functional, cell-based;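 further: U2OS cells with beta-arrestin recruitment to OPRM1 by beta-gal complementation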
[6] = viability of uninfected HEp-2 cells – cell-based, HTS, cytotoxicity control for RSV inhibitor project, dose response (AID 2410); type: functional; conditions: human respiratory syncytial virus
[7] = target: T2, SUMO-activating enzyme (Homo sapiens, UniProt Q9UBT2); experiment: blockers of SAE1/SAE2–UBC9 SUMO transfer – biochemical, HTRF, uHTS, primary screen (AID 2006); type: protein-complex assay
[8] = target: T2, SUMO-activating enzyme; experiment: blockers of UBC9-mediated SUMO conjugation – biochemical, AlphaScreen, SUMOylation inhibitor project, confirmation (AID 2018); type: functional
[9] = target: Phosphomannomutase 2 (Homo sapiens, UniProt O15305); experiment: Counter screen SAR assay for PMM2 inhibitors via a fluorescence intensity assay. [Related pubchem assays (depositor defined):AID1545, AID1574]
[10] = target: T3, Mannose-6-phosphate isomerase (Homo sapiens, UniProt P34949); experiment: phosphomannose isomerase inhibition – biochemical, fluorescence intensity, confirmation (AID 1535)
T3 sequence (P34949 whole entry): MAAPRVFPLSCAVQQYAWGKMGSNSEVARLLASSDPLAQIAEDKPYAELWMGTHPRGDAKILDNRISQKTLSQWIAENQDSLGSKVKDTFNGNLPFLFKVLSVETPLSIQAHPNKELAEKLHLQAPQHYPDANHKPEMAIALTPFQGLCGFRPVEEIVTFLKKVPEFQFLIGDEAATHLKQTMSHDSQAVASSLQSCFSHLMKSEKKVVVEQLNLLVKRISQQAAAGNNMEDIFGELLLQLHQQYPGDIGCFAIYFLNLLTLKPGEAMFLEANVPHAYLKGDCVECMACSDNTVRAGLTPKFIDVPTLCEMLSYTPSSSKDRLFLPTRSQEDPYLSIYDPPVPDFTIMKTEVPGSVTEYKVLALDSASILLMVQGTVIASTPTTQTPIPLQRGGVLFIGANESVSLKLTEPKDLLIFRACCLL

[11] = viability loss in HEK293 cells – cell-based, plate reader, cherry-picked samples, cytotoxicity control, dose response (AID 743446); type: functional
[12] = target: T4, Small ubiquitin-related modifier 1 (Homo sapiens, UniProt P63165); experiment: SUMO1 protein interaction blockers, potency – biochemical, fluorescence polarization, uHTS hits, dose response (AID 624382); type: functional; conditions: read-out: IC50_Mean
[13] = blockers of bursicon-stimulated LGR2 cAMP reporter – cell-based, HEK293, CRE-luciferase reporter, cherry pick, set 2, dose response (AID 743343); type: functional;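 further: transfected cells were stimulated with diluted bursicon conditioned medium after compound addition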
[14] = NIH3T3 cell viability loss – ATP luminescence, mouse fibroblasts, counter-screen, dose response (AID 2010); type: functional, cell-based;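 further: cells exposed to compound for about 90 hours before reading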
[15] = microbe, parasite or virus in culture; type: functional; conditions: Mycobacterium tuberculosis
[16] = test system: INS1; experiment: INS-1E survival protection against cytokine death – cell-based, luminescence, retest, dose response (AID 449756); type: functional; conditions: Rattus norvegicus;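 further: cell death triggered by IL-1 beta plus TNF-alpha plus IFN-gamma mixture; protective hits raise ATP signal compared with cytokine alone wells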
[17] = A549 cell cytotoxicity, dose response, cytotoxicity control, plate reader, cherry-pick, antagonist series (AID 743412); type: functional, cell-based
[18] = Trypanosoma cruzi growth suppression in host cells – NIH3T3 host cells, beta-gal luminescence, confirmation (AID 2044); type: functional, cell-based;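 further: intracellular parasites grown in NIH/3T3 mouse fibroblasts as host cells; luminescent beta-galactosidase reporter signal from transgenic T. cruzi replicating inside host cells; inhibitors lower the luminescence signal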
[19] = toxicity toward HepG2 liver cells – cell-based, plate reader, cherry-pick, antagonist series, cytotoxicity control, dose response (AID 743416); type: functional
[20] = target: T5, Ubiquitin-conjugating enzyme E2 N (Homo sapiens, UniProt P61088); type: functional
T5 sequence (P61088 whole entry): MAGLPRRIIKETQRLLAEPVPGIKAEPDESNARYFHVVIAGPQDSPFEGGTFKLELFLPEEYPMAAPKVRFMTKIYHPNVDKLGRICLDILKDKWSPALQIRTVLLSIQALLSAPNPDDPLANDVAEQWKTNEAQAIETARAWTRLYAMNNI

[21] = target: T5, Ubiquitin-conjugating enzyme E2 N; type: functional; remark: listed apart in the source
[22] = target: T4, Small ubiquitin-related modifier 1; experiment: SUMO1 protein-protein binding blockers, potency – biochemical, FRET, dose response (AID 624383); type: functional; conditions: read-out: IC50_Mean
[23] = target: Cystic fibrosis transmembrane conductance regulator/Golgi-associated PDZ and coiled-coil motif-containing protein (Homo sapiens, UniProt P13569+Q9HD26); experiment: potency against CAL PDZ-peptide interaction – biochemical, fluorescence polarization, Cerulean-tagged CAL PDZ, cherry-picks, dose response (AID 504773)
[24] = luciferase reporter signal suppression in cells – H4 neuroglioma cells, luminescence, dose response (AID 1990); type: functional, cell-based
[25] = target: T6, Rac GTPase-activating protein 1 (Homo sapiens, UniProt Q9H0H5); experiment: blockers of MgcRacGAP-driven Rac1 GTP hydrolysis – biochemical, ADP Hunter fluorescence, primary and confirmatory, confirmation (AID 624330); type: functional
T6 sequence (Q9H0H5 whole entry): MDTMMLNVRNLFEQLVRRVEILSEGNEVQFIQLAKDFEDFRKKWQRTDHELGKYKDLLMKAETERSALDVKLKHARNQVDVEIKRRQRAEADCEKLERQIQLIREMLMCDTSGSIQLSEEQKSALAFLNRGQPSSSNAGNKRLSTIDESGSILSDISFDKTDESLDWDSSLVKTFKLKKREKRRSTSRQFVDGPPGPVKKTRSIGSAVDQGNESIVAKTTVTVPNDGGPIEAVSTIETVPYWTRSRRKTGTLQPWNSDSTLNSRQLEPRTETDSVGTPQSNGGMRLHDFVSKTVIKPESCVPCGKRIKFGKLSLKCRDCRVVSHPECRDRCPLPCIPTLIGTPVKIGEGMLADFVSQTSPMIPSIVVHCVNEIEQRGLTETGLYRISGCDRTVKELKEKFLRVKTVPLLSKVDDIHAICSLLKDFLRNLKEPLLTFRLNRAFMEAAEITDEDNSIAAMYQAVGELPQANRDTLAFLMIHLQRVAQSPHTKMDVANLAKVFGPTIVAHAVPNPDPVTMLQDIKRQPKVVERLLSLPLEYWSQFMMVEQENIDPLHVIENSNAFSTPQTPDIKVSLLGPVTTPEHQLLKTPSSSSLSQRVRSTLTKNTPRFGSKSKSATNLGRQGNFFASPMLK

[26] = Luminescence Cell-Based Dose Response HTS to Identify Inhibitors of 5'UTR Stem-Loop Driven Prion Protein mRNA Translation in H4 Neuroglioblastoma Cells. [Related pubchem assays: 1827 (Project Summary), 1813 (Primary HTS)]; type: functional
[27] = target: T7, Type-1 angiotensin II receptor (Homo sapiens, UniProt P30556); experiment: agonist activity at AGTR1 – cell-based, uHTS hits, selectivity assay for APJ receptor agonist project, dose response (AID 488865); type: functional;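 further: beta-arrestin recruitment to AT1 measured by enzyme fragment complementation luminescence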
T7 sequence (P30556 whole entry): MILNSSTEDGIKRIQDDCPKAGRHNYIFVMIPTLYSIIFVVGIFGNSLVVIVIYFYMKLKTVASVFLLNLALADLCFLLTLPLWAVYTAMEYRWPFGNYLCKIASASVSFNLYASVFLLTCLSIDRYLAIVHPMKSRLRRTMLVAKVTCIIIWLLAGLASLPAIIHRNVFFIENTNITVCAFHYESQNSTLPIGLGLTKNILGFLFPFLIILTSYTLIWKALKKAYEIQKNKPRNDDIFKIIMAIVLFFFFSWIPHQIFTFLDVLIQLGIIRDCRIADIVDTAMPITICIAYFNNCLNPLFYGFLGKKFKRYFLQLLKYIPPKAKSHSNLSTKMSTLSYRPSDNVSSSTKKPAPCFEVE

[28] = test system: HEK293; experiment: EBV LMP1 TES2 canonical NF-kB signalling blockers – cell-based, HEK293, luciferase, cherry-pick, dose response (AID 588343); type: functional; conditions: Homo sapiens
[29] = blockade of melanocortin 4 receptor signaling – cell-based, plate reader, cherry pick, counter-screen for LGR2 antagonist project, dose response (AID 743444); type: functional;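 further: transfected HEK 293 cells stimulated with alpha-MSH peptide; potency of inhibitors of the alpha-MSH evoked signal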
[30] = alpha-synuclein stem-loop luciferase translation blockers – H4 neuroglioma cells, luminescence, confirmation (AID 1988); type: functional, cell-based
[31] = viability loss in HeLa cells – cytotoxicity control for MgcRacGAP inhibitor project, dose response (AID 624300); type: functional
[32] = HEK-293T viability loss after treatment – luminescence, T-cell screen hits, cytotoxicity control for TCR NF-kB inhibitor project, dose response (AID 489026); type: functional, cell-based;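 further: cells exposed to compound about 14 hours before the viability readout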
[33] = target: T8, Bcl-2-related protein A1 (Mus musculus, UniProt Q07440); type: functional;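 further: confirmatory dose–response counterscreen on Bfl-1, used to check hits from a UBC13 polyubiquitin inhibitor campaign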
T8 sequence (Q07440 whole entry): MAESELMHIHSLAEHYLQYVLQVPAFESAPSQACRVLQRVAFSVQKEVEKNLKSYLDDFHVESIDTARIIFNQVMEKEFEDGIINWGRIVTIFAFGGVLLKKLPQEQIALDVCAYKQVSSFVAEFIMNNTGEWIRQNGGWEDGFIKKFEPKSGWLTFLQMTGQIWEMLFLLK

T2 sequence (Q9UBE0 whole entry): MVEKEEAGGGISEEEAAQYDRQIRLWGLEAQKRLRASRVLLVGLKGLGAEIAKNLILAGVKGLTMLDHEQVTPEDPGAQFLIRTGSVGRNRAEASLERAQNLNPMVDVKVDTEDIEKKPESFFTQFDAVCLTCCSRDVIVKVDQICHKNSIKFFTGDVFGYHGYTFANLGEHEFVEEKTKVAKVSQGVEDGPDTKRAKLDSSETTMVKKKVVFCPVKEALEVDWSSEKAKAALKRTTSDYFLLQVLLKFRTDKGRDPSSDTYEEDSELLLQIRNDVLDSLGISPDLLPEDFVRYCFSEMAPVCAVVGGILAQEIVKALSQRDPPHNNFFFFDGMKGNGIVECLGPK
T2 sequence (Q9UBT2 whole entry): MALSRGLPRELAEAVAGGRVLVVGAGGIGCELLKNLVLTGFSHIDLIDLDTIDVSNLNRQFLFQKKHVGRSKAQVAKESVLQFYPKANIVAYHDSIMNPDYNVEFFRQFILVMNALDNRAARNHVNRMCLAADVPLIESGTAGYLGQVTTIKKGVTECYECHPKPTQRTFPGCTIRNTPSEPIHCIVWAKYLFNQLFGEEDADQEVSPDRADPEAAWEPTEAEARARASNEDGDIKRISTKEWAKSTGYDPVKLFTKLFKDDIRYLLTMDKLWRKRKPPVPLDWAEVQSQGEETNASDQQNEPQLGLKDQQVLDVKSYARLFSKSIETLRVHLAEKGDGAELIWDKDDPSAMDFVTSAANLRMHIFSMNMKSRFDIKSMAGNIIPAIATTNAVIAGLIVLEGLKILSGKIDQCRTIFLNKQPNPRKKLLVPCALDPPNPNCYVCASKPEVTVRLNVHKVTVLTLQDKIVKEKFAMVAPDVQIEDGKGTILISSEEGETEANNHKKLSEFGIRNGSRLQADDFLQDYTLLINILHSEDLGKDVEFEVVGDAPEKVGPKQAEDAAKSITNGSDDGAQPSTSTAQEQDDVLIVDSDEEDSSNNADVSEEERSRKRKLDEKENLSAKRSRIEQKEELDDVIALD
T4 sequence (P63165 whole entry): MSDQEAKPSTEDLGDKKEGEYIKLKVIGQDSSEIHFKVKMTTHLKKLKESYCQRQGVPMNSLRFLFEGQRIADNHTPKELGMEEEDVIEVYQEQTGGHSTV
NACHT, LRR and PYD domains-containing protein 1, sequence (Q9C000 1-1212 limits assumed): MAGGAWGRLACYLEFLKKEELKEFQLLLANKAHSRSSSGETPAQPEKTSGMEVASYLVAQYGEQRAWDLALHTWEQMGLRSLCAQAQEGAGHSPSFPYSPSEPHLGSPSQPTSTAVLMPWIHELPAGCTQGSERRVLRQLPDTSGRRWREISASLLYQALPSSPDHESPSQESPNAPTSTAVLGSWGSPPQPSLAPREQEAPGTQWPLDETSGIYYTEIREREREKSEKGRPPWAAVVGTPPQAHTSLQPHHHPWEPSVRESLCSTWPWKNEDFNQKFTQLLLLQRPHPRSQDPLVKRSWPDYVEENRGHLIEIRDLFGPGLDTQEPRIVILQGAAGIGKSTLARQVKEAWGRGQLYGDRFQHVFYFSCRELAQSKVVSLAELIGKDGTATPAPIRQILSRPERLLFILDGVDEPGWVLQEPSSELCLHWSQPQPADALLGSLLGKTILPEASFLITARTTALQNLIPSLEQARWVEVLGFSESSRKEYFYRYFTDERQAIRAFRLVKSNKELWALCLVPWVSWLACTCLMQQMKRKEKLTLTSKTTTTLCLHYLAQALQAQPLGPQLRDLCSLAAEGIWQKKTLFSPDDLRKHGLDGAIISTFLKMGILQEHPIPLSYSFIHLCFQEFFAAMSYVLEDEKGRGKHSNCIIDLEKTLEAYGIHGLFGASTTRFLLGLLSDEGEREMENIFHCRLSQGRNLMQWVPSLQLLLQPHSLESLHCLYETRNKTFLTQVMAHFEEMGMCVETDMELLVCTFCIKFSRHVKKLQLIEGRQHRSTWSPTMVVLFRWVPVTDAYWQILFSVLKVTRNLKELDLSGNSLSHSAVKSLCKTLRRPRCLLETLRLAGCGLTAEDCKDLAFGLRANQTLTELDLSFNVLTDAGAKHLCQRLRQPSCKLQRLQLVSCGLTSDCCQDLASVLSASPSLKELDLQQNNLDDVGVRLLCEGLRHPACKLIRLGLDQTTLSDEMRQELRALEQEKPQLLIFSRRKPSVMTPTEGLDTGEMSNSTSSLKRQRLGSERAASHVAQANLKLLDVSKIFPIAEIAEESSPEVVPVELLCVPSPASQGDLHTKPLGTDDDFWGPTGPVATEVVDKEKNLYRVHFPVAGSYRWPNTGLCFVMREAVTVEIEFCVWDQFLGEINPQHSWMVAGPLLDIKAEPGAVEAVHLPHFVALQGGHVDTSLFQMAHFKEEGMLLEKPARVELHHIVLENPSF
NACHT, LRR and PYD domains-containing protein 1, sequence (Q9C000 1213-1473 limits assumed): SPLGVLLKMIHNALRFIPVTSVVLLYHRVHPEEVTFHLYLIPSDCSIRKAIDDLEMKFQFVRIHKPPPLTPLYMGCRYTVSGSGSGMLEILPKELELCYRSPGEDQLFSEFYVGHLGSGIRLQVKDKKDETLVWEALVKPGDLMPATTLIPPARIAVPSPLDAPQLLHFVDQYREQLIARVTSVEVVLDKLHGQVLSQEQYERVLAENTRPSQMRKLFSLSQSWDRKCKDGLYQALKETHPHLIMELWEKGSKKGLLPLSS
Mu-type opioid receptor, sequence (P35372 whole entry): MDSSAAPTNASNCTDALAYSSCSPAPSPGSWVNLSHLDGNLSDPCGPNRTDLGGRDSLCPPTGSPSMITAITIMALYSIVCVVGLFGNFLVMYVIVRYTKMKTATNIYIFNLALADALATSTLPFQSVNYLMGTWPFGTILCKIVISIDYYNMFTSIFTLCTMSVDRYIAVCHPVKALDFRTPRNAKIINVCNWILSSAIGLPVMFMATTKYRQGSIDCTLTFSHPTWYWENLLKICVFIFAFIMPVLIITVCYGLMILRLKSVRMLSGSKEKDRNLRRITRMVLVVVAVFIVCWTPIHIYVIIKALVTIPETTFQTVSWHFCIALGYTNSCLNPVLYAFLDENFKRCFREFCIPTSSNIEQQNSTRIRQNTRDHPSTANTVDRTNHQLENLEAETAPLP
Cystic fibrosis transmembrane conductance regulator/Golgi-associated PDZ and coiled-coil motif-containing protein, sequence (P13569 whole entry, other chains not shown): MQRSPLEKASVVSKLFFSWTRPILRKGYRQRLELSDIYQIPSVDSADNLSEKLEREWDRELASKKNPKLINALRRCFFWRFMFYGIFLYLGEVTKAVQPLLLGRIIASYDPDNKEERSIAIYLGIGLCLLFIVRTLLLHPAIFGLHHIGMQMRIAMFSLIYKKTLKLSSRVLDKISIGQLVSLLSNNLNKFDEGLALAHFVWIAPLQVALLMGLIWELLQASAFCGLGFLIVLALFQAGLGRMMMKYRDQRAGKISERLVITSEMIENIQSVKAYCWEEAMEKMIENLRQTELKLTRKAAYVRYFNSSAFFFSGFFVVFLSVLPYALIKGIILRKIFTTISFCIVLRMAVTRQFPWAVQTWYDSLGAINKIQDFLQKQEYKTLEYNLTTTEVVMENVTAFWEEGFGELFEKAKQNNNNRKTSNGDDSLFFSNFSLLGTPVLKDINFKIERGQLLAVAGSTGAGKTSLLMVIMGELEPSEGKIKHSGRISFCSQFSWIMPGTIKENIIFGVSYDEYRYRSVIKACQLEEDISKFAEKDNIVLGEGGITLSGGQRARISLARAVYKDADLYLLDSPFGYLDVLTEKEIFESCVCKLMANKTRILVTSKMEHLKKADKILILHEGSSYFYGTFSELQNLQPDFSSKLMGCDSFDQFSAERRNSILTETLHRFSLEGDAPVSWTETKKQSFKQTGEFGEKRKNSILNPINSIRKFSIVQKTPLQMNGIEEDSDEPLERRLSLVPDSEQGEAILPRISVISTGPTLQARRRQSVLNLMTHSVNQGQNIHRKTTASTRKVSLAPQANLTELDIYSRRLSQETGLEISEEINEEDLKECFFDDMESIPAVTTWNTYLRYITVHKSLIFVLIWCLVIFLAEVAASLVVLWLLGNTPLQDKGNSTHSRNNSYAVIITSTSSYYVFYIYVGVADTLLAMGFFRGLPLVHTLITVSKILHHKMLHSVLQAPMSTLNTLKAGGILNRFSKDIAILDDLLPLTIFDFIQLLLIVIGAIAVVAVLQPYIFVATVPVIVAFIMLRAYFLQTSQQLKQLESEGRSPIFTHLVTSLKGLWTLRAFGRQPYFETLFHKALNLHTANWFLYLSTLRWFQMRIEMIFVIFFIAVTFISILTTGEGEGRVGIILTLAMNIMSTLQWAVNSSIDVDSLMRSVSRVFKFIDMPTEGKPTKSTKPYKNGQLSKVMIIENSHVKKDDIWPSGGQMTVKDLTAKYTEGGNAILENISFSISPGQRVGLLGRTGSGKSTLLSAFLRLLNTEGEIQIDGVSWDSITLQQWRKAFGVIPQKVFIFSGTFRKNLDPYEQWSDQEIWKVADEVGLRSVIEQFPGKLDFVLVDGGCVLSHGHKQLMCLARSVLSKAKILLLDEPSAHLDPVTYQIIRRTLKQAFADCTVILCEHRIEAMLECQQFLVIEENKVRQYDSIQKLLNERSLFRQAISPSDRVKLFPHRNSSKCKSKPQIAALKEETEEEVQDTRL
Phosphomannomutase 2, sequence (O15305 whole entry): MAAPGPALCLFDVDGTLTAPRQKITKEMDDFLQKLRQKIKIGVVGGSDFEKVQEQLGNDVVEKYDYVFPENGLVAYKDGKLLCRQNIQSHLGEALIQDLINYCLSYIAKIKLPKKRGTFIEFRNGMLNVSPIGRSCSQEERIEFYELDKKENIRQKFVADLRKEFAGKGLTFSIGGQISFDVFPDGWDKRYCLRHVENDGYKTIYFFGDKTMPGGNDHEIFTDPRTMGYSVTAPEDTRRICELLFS

SMILES: c1ccc(-c2nc(N3CCNCC3)nc3ccccc23)cc1
- EC50 [1]: 0.3 µM (active)

SMILES: COc1ccc(C)cc1NC(=O)c1ccc(CN2CCN(c3ccccc3)CC2)cc1
- EC50 [2]: 76.1 µM (inactive)
- IC50 [3]: > 100 µM (inactive)
- IC50 [4]: > 100 µM (inactive)
- EC50 [5]: 92.5 µM (inactive)
- CC50 [6]: 21.4 µM (active)

SMILES: CCOC(=O)C1CCCN(Cc2ccc(OCC)cc2)C1 (centres undefined)
- IC50 [3]: > 100 µM (inactive)
- IC50 [4]: > 100 µM (inactive)

SMILES: COc1ccc(NC(=O)CN2C(=O)S/C(=C/c3cccn3-c3ccc(C(=O)O)cc3)C2=O)cc1
- IC50 [7]: 10.5 µM (active)
- IC50 [8]: 5.52 µM (active)

SMILES: FC(F)(F)c1ccc(/N=c2\ssnc2Cl)cc1
- IC50 [9]: > 100 µM (inactive)
- IC50 [10]: 32.7 µM (active)

SMILES: COc1ccc(/C=N/Nc2cc(C)nc3ccc(OC)cc23)c(OC)c1
- AC50 [11]: 9.83 µM (active)
- IC50 [12]: > 66.6 µM (inactive)
- AC50 [13]: 8.34 µM (active)
- EC50 [14]: 7.61 µM (active)
- CC50 [15]: 1.77 µM (active)
- AC50 [16]: 7.95 µM (active)
- AC50 [17]: 4.32 µM (active)
- EC50 [18]: 0.72 µM (active)
- AC50 [19]: 3.97 µM (active)
- IC50 [20]: 6.39 µM (active)
- IC50 [21]: 9.1 µM (active)
- IC50 [22]: 9.36 µM (active)
- AC50 [23]: 38.7 µM (active)
- EC50 [24]: 8.87 µM (active)
- IC50 [25]: 36.4 µM (active)
- EC50 [26]: 8.29 µM (active)
- EC50 [27]: > 100 µM (inactive)
- AC50 [28]: 3.43 µM (active)
- AC50 [29]: 10.8 µM (active)
- EC50 [30]: 8.01 µM (active)
- CC50 [31]: 17.9 µM (active)
- IC50 [32]: 28.1 µM (inactive)
- IC50 [33]: 11.4 µM (active)

SMILES: Sc1nnc(-c2cccc(Cl)c2)n1/N=C/c1ccc(-c2ccccc2Br)o1
- IC50 [7]: 28 µM (active)
- IC50 [8]: 12.6 µM (active)
- CC50 [6]: > 50 µM (active)

SMILES: Oc1[nH]nc(-c2ccccc2)c1/C=N/c1ccc(Cl)cc1
- EC50 [1]: 2.11 µM (active)
